What was measured:
human CGAS (157-522) = human CGAS (157-522) (Homo sapiens, UniProt Q8N884); assay: biochemical;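 also: biochemical enzyme reaction, 2′3′-cGAMP product measured by RapidFire mass spectrometry (MRM) normalised to c-di-UMP internal standard, inhibition of product formation relative to high and low control wells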
CGAS = CGAS whole blood cytokine release assay (384-well, BacMam stimulation, IP-10 by cytometric bead array); format: cell-based; conditions: Homo sapiens, 6 h; read-out: hWB pXC50 (converted)
Method in brief: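 Heparinised human donor whole blood mixed with serially diluted compound plus Null BacMam stimulus, incubated 6 h at 37° C, 5% CO2. Supernatant IP-10 quantified by cytometric bead array on flow cytometer (488 nm excitation, 585/40 nm emission); inhibition of IP-10 calculated.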

Sequence of human CGAS (157-522) (Q8N884 157-522): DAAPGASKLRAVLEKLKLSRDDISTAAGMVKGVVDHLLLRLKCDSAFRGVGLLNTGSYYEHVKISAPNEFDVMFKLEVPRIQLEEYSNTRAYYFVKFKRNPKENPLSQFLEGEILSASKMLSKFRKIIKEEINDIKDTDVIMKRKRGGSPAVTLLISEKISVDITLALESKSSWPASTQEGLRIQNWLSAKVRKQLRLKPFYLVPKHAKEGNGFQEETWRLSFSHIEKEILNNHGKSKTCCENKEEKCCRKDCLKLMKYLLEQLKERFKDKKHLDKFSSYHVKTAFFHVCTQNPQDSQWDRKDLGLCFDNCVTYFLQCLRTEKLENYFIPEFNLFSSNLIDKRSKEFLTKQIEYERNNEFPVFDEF

| Structure (SMILES) | IC50 (human CGAS (157-522)) [nM] | IC50 (CGAS) [nM] |
| --- | --- | --- |
| FC(F)c1ccn2c(-c3cnc[nH]3)c(-c3nc(C(F)(F)F)n[nH]3)nc2n1 [Example 95, 5-[7-(difluoromethyl)-3-(1H-imidazol-5-yl)imidazo[1,2-a]pyrimidin-2-yl]-3-(trifluoromethyl)-1H-1,2,4-triazole] | 10 | 398 |
| FC(F)(F)c1n[nH]c(-c2nc3nc4c(cn3c2-c2cnc[nH]2)CSCC4)n1 [Example 103, 6-(1H-imidazol-5-yl)-5-[3-(trifluoromethyl)-1H-1,2,4-triazol-5-yl]-11-thia-2,4,7-triazatricyclo[7.4.0.03,7]trideca-1,3,5,8-tetraene] | 1.26 | 251 |
| O=S1(=O)CCc2nc3nc(-c4nc(C(F)(F)F)n[nH]4)c(-c4cnc[nH]4)n3cc2C1 [Example 104, 6-(1H-imidazol-5-yl)-5-[3-(trifluoromethyl)-1H-1,2,4-triazol-5-yl]-11λ^6-thia-2,4,7-triazatricyclo[7.4.0.0^3,^7]trideca-1,3,5,8-tetraene-11,11-dione] | 3.98 | 6310 |
| N#CCCOCc1cnc2nc(-c3nc(C(F)(F)F)n[nH]3)c(-c3cnc[nH]3)n2c1 [Example 105, 3-{[3-(1H-imidazol-5-yl)-2-[3-(trifluoromethyl)-1H-1,2,4-triazol-5-yl]imidazo[1,2-a]pyrimidin-6-yl]methoxy}propanenitrile] | 3.16 | 1000 |
| Nc1ccn2c(-c3cnc[nH]3)c(-c3nc(C(F)(F)F)n[nH]3)nc2n1 [Example 107, 3-(1H-imidazol-5-yl)-2-[3-(trifluoromethyl)-1H-1,2,4-triazol-5-yl]imidazo[1,2-a]pyrimidin-7-amine] | 2.51 | 631 |
| CC(C)(C)c1cnc2nc(-c3nc(C(F)(F)F)n[nH]3)c(-c3c[nH]cn3)n2c1 [Example 109, 5-[6-tert-butyl-3-(1H-imidazol-4-yl)imidazo[1,2-a]pyrimidin-2-yl]-3-(trifluoromethyl)-1H-1,2,4-triazole] | 5.01 | 1260 |
| N#Cc1cnc2nc(-c3nc(C(F)(F)F)n[nH]3)c(-c3cnc[nH]3)n2c1 [Example 110, 3-(1H-imidazol-5-yl)-2-[3-(trifluoromethyl)-1H-1,2,4-triazol-5-yl]imidazo[1,2-a]pyrimidine-6-carbonitrile] | 50.1 | 398 |
| FC(F)(F)COCc1cnc2nc(-c3nc(C(F)(F)F)n[nH]3)c(-c3cnc[nH]3)n2c1 [Example 111, 5-[3-(1H-imidazol-5-yl)-6-[(2,2,2-trifluoroethoxy)methyl]imidazo[1,2-a]pyrimidin-2-yl]-3-(trifluoromethyl)-1H-1,2,4-triazole] | 3.98 | 398 |
| COCc1cn2c(-c3cnc[nH]3)c(-c3nc(C(F)(F)F)n[nH]3)nc2nc1C(F)(F)F [Example 114, 5-[3-(1H-imidazol-5-yl)-6-(methoxymethyl)-7-(trifluoromethyl)imidazo[1,2-a]pyrimidin-2-yl]-3-(trifluoromethyl)-1H-1,2,4-triazole] | 3.98 | 1000 |
| CCOCc1cn2c(-c3cnc[nH]3)c(-c3nc(C(F)F)n[nH]3)nc2nc1C(F)(F)F [Example 117, 3-(difluoromethyl)-5-[6-(ethoxymethyl)-3-(1H-imidazol-5-yl)-7-(trifluoromethyl)imidazo[1,2-a]pyrimidin-2-yl]-1H-1,2,4-triazole] | 6.31 | 3160 |
| CC(NCc1ccn2c(-c3c[nH]cn3)c(-c3nc(C(F)(F)F)n[nH]3)nc2n1)C(F)(F)F (stereo not shown) [Example 118, {[3-(1H-imidazol-4-yl)-2-[3-(trifluoromethyl)-1H-1,2,4-triazol-5-yl]imidazo[1,2-a]pyrimidin-7-yl]methyl}(1,1,1-trifluoropropan-2-yl)amine] | 12.6 | 631 |
| FC(F)c1cnc2nc(-c3nc(C(F)(F)F)n[nH]3)c(-c3c[nH]cn3)n2c1 [Example 120, 5-[6-(difluoromethyl)-3-(1H-imidazol-4-yl)imidazo[1,2-a]pyrimidin-2-yl]-3-(trifluoromethyl)-1H-1,2,4-triazole] | 6.31 | 631 |
| COCc1cn2c(-c3cnc[nH]3)c(-c3nc(C(F)F)n[nH]3)nc2nc1C(F)(F)F [Example 121, 3-(difluoromethyl)-5-[3-(1H-imidazol-5-yl)-6-(methoxymethyl)-7-(trifluoromethyl)imidazo[1,2-a]pyrimidin-2-yl]-1H-1,2,4-triazole] | 7.94 | 1580 |
| FC(F)(F)c1n[nH]c(-c2nc3ncc(COCC(F)(F)C(F)(F)C(F)(F)F)cn3c2-c2cnc[nH]2)n1 [Example 123, 5-{6-[(2,2,3,3,4,4,4-heptafluorobutoxy)methyl]-3-(1H-imidazol-5-yl)imidazo[1,2-a]pyrimidin-2-yl}-3-(trifluoromethyl)-1H-1,2,4-triazole] | 6.31 | 1260 |
| N#Cc1ccn2c(-c3c[nH]cn3)c(-c3nc(C(F)(F)F)n[nH]3)nc2n1 [Example 124, 3-(1H-imidazol-4-yl)-2-[3-(trifluoromethyl)-1H-1,2,4-triazol-5-yl]imidazo[1,2-a]pyrimidine-7-carbonitrile] | 6.31 | 158 |
| Fc1cn2c(-c3cnc[nH]3)c(-c3nc(C(F)(F)F)n[nH]3)nc2nc1C(F)(F)F [Example 125, 5-[6-fluoro-3-(1H-imidazol-5-yl)-7-(trifluoromethyl)imidazo[1,2-a]pyrimidin-2-yl]-3-(trifluoromethyl)-1H-1,2,4-triazole] | 15.8 | 3160 |
| FC(F)(F)c1n[nH]c(-c2nc3ncc(COCC4CCOC4)cn3c2-c2cnc[nH]2)n1 (stereo not shown) [Example 126, 5-[3-(1H-imidazol-5-yl)-6-{[(oxolan-3-yl)methoxy]methyl}imidazo[1,2-a]pyrimidin-2-yl]-3-(trifluoromethyl)-1H-1,2,4-triazole] | 7.94 | 501 |
| COCC(C)COCc1cnc2nc(-c3nc(C(F)(F)F)n[nH]3)c(-c3cnc[nH]3)n2c1 (stereo not shown) [Example 127, 5-[3-(1H-imidazol-5-yl)-6-[(3-methoxy-2-methylpropoxy)methyl]imidazo[1,2-a]pyrimidin-2-yl]-3-(trifluoromethyl)-1H-1,2,4-triazole] | 7.94 | 251 |
| FC(F)(F)c1n[nH]c(-c2nc3nc(C(F)(F)F)c(Cl)cn3c2-c2cnc[nH]2)n1 [Example 128, 5-[6-chloro-3-(1H-imidazol-5-yl)-7-(trifluoromethyl)imidazo[1,2-a]pyrimidin-2-yl]-3-(trifluoromethyl)-1H-1,2,4-triazole] | 12.6 | 3160 |
| CCOCCOCc1cnc2nc(-c3nc(C(F)(F)F)n[nH]3)c(-c3cnc[nH]3)n2c1 [Example 129, 5-{6-[(2-ethoxyethoxy)methyl]-3-(1H-imidazol-5-yl)imidazo[1,2-a]pyrimidin-2-yl}-3-(trifluoromethyl)-1H-1,2,4-triazole] | 7.94 | 316 |
| FC(F)(F)c1n[nH]c(-c2nc3nc4c(cn3c2-c2cnc[nH]2)CCC4)n1 [Example 133, 12-(1H-imidazol-5-yl)-11-[3-(trifluoromethyl)-1H-1,2,4-triazol-5-yl]-1,8,10-triazatricyclo[7.3.0.0^3,^7]dodeca-2,7,9,11-tetraene] | 3.16 | 200 |
| FC(F)(F)c1n[nH]c(-c2nc3nc4c(cn3c2-c2cnc[nH]2)CCCC4)n1 [Example 134, 5-[3-(1H-imidazol-5-yl)-6H,7H,8H,9H-imidazo[2,1-b]quinazolin-2-yl]-3-(trifluoromethyl)-1H-1,2,4-triazole] | 3.98 | 398 |
| FC(F)(F)c1n[nH]c(-c2nc3ncc(OCC4CCOC4)cn3c2-c2c[nH]cn2)n1 (stereo not shown) [Example 135, 5-[3-(1H-imidazol-4-yl)-6-[(oxolan-3-yl)methoxy]imidazo[1,2-a]pyrimidin-2-yl]-3-(trifluoromethyl)-1H-1,2,4-triazole] | 3.16 | 631 |
| FC(F)(F)c1n[nH]c(-c2nc3nc4c(cn3c2-c2c[nH]cn2)C2CCC(C4)O2)n1 (stereo not shown) [Example 136, 5-(1H-imidazol-4-yl)-6-[3-(trifluoromethyl)-1H-1,2,4-triazol-5-yl]-15-oxa-4,7,9-triazatetracyclo[10.2.1.0^2,^10.0^4,^8]pentadeca-2,5,7,9-tetraene] | 7.94 | 316 |
| FC(F)(F)c1n[nH]c(-c2nc3ncc(COCCC4CCOC4)cn3c2-c2cnc[nH]2)n1 (stereo not shown) [Example 139, 5-[3-(1H-imidazol-5-yl)-6-{[2-(oxolan-3-yl)ethoxy]methyl}imidazo[1,2-a]pyrimidin-2-yl]-3-(trifluoromethyl)-1H-1,2,4-triazole] | 7.94 | 398 |
| FC(F)(F)c1n[nH]c(-c2nc3ncc(COCCCC4CCCO4)cn3c2-c2cnc[nH]2)n1 (stereo not shown) [Example 140, 5-[3-(1H-imidazol-5-yl)-6-{[3-(oxolan-2-yl)propoxy]methyl}imidazo[1,2-a]pyrimidin-2-yl]-3-(trifluoromethyl)-1H-1,2,4-triazole] | 12.6 | 794 |
| FC(F)(F)c1n[nH]c(-c2nc3ncc(COCCC4CCCO4)cn3c2-c2cnc[nH]2)n1 (stereo not shown) [Example 141, 5-[3-(1H-imidazol-5-yl)-6-{[2-(oxolan-2-yl)ethoxy]methyl}imidazo[1,2-a]pyrimidin-2-yl]-3-(trifluoromethyl)-1H-1,2,4-triazole] | 3.98 | 316 |
| OCCCCCOCc1cnc2nc(-c3nc(C(F)(F)F)n[nH]3)c(-c3cnc[nH]3)n2c1 [Example 142, 5-{[3-(1H-imidazol-5-yl)-2-[3-(trifluoromethyl)-1H-1,2,4-triazol-5-yl]imidazo[1,2-a]pyrimidin-6-yl]methoxy}pentan-1-ol] | 3.98 | 794 |
| CC(COCc1cnc2nc(-c3nc(C(F)(F)F)n[nH]3)c(-c3c[nH]cn3)n2c1)n1ccnc1 (stereo not shown) [Example 143, 5-(6-{[2-(1H-imidazol-1-yl)propoxy]methyl}-3-(1H-imidazol-4-yl)imidazo[1,2-a]pyrimidin-2-yl)-3-(trifluoromethyl)-1H-1,2,4-triazole] | 3.98 | 2510 |

From patent US12247033B2, “Triazole-substituted imidazo[1,2-a]pyrimidines as cGAS inhibitors” (GlaxoSmithKline Intellectual Property Development Limited, priority 2022, dated 2025)
